Data from a melting point compilation (Tetko et al.).

Cn1c(CO)nc2cc(Cl)ccc21
melting point: 179 to 181 °C

NS(=O)(=O)c1cc(C(=O)O)ccc1F
melting point: 236 to 238 °C

Cn1nc(Br)c2c(=O)[nH]cnc21
melting point: 296 to 298 °C

CCOC(=O)c1c(NC(=O)CCl)sc(-c2ccccc2)c1C
melting point: 106 to 108 °C

O=S1CCCNc2ccccc21 (centres undefined)
melting point: 122 to 124 °C

NCc1ccc(N2CCC(O)CC2)c(F)c1
melting point: 104 to 106 °C

O=C(O)CCn1c(=O)oc2cc(Cl)ccc21
melting point: 160 to 162 °C

COCCn1nnnc1N
melting point: 114 to 116 °C

CC(=O)c1ccc(S(=O)(=O)NCCCC(=O)O)cc1
melting point: 140 to 142 °C

Cc1cs/c(=N\c2ccccc2)n1C1CCCC1
melting point: 51 to 53 °C

O=c1cc(CO)c2ccc(O)cc2o1
melting point: 221 to 223 °C

O=C(O)C1CCCN1C(=O)c1ccc([N+](=O)[O-])o1 (centres undefined)
melting point: 154 to 156 °C

COC(=O)c1cc(S(=O)(=O)Cl)c(Br)cc1F
melting point: 105 to 107 °C

COCCOc1ccc(F)cc1[N+](=O)[O-]
melting point: 54 to 56 °C

Cc1ccccc1C(N)=NO
melting point: 81 to 83 °C

CCOC(=O)/C(C#N)=C\Nc1ccc(Cl)cc1F
melting point: 154 to 156 °C

ClCc1csc(-c2ccco2)n1
melting point: 76 to 78 °C

Cc1ccc(-n2nc(C)c(C=O)c2Cl)cc1
melting point: 135 to 137 °C

CCOc1cc2c(cc1C=O)OC(C)C2 (centres undefined)
melting point: 74 to 78 °C

c1csc(-c2nn[nH]n2)c1
melting point: 201 to 203 °C

CC(=O)c1ccc(N2CCCC2=O)cc1
melting point: 127 to 131 °C

O=C(O)c1ccc(-c2ccc(F)cc2)cc1F
melting point: 237 to 239 °C

Nc1cc(C(=O)N2CCCCC2)ccc1Cl
melting point: 135 to 137 °C

Cc1nnc(CCl)o1
melting point: 32 to 40 °C

CCN1N=C(C(=O)O)CCC1=O
melting point: 147 to 149 °C

Nc1ccc(N2CCN(C(=O)C3CC3)CC2)cn1
melting point: 153 to 155 °C

CCOC(=O)c1nnc2ccccc2c1N
melting point: 239 to 241 °C

O=C(O)CCC1NC(=O)N(c2ccc(Cl)cc2)C1=O (centres undefined)
melting point: 212 to 214 °C

COc1ccc2c(c1)OCC(C(=O)O)=C2
melting point: 201 to 203 °C

CCOc1ccc([N+](=O)[O-])cc1C=O
melting point: 66 to 68 °C

Nc1cc(C(F)(F)F)ccc1Oc1ccc(Br)cc1
melting point: 19 to 21 °C

O=C(O)CCNC(=O)Nc1ccc(Br)cc1
melting point: 248 to 250 °C

Oc1nc(-c2ccc(Cl)cc2)cs1
melting point: 218 to 220 °C

Cc1ccc2oc(-c3nnc(S)n3N)cc2c1
melting point: 228 to 230 °C

Cc1c(C(=O)O)[nH]c2c1C(=O)CC(C)(C)C2
melting point: 206 to 208 °C

COc1cccc(NC(=O)CCl)c1
melting point: 73 to 75 °C

CN(C)S(=O)(=O)c1ccc2oc(NN)nc2c1
melting point: 218 to 220 °C

O=C(O)c1cccc(OC2CCCC2)c1
melting point: 79 to 81 °C

Nc1cc(CCc2ccccc2)[nH]n1
melting point: 58 to 60 °C

NCCNS(=O)(=O)Cc1ccccc1
melting point: 88 to 90 °C

CC1CNc2cccnc2N1 (centres undefined)
melting point: 110 to 112 °C

O=C(O)c1cnc2sccn2c1=O
melting point: 269 to 271 °C

CC(N)c1nc(-c2ccccc2)c[nH]1 (centres undefined)
melting point: 129 to 131 °C

Cc1cnc2c(C)cnn2c1N
melting point: 239 to 241 °C

OCc1cccc(OCC(F)(F)F)c1
melting point: 30 to 32 °C

N#Cc1cnc(-c2ccccc2)nc1
melting point: 189 to 191 °C

CC(C)(C)C(=O)Nc1nc(CC(=O)O)cs1
melting point: 222 to 224 °C

COc1cc(C)c(N)cc1OC
melting point: 39 to 41 °C

O=C(O)c1csc(COc2ccc(Cl)cc2)n1
melting point: 217 to 219 °C

Cc1ccc2c(c1)c(=O)n(C)c1nnc(CCl)n21
melting point: 203 to 205 °C

Cc1nc2sccn2c1C=O
melting point: 94 to 96 °C

CC(C)N1CCc2c(sc(N)c2C#N)C1
melting point: 167 to 169 °C

OCCN1CCSCC1
melting point: 34 to 36 °C

O=C(CCl)NCC1COc2ccccc2O1 (centres undefined)
melting point: 212 to 214 °C

O=C(O)Cc1ccc(NS(=O)(=O)c2cccc(C(F)(F)F)c2)cc1
melting point: 122 to 124 °C

c1cncc(NCc2ccco2)c1
melting point: 45 to 49 °C

O=C(OCc1ccccc1)N1CCCC(CS(=O)(=O)Cl)C1 (centres undefined)
melting point: 81 to 83 °C

Cc1ncc(-c2ccccc2)cc1N
melting point: 139 to 141 °C

O=C(O)c1cc2c(OC(F)(F)F)cccc2[nH]1
melting point: 189 to 191 °C

COC(=O)c1cc2ccc(F)cc2s1
melting point: 88 to 90 °C

O=C(O)CCN1C(=O)CCC1=O
melting point: 131 to 133 °C

Cc1n[nH]c(C)c1NC(=O)CCl
melting point: 160 to 162 °C

O=C(O)c1cc(C2CC2)nc2onc(-c3ccco3)c12
melting point: 211 to 213 °C

CC1CC(C(=O)O)CC(C)(C)C1 (centres undefined)
melting point: 39 to 41 °C

Nc1nc(-c2ccc3c(c2)OCCO3)n[nH]1
melting point: 178 to 180 °C

O=c1ccnc(-c2ccccc2)[nH]1
melting point: 204 to 206 °C

CC1CC(C(F)(F)F)c2c(n(C)[nH]c2=O)N1 (centres undefined)
melting point: 202 to 204 °C

O=C(O)c1ccc(F)c(S(=O)(=O)N2CCCCC2)c1
melting point: 203 to 205 °C

CCOC(O)=C1Nc2ccccc2C1=O
melting point: 92 to 94 °C

O=C(O)c1cccc(OCc2cn3ccccc3n2)c1
melting point: 197 to 199 °C

Cc1cc(C)n(CCS(C)(=O)=O)n1
melting point: 90 to 92 °C

O=C(O)c1csc(-c2ccc(Cl)s2)n1
melting point: 247 to 249 °C

O=C(O)CCc1cn(Cc2ccc(Cl)cc2)c2ccccc12
melting point: 139 to 141 °C

OCc1ncn(-c2ccccc2)n1
melting point: 109 to 111 °C

O=C1C2C3C=CC(C3)C2C(=O)N1c1cccc(Br)c1 (centres undefined)
melting point: 192 to 194 °C

Clc1cc(C2=NCCN2)ccn1
melting point: 165 to 167 °C

CC(C)(C)Nc1nccs1
melting point: 83 to 85 °C

Cc1nc(Cl)nc(Cl)c1[N+](=O)[O-]
melting point: 52 to 54 °C

CCCCC1CCC(C(=O)CC#N)CC1 (centres undefined)
melting point: 52 to 54 °C

O=C(O)c1ccc(-c2cc(Cl)cc(Cl)c2)s1
melting point: 190 to 195 °C

Nc1ccc2oc(CO)nc2c1
melting point: 113 to 115 °C

Cn1nc(C(=O)O)cc1-c1ccc2c(c1)OCO2
melting point: 214 to 216 °C

Cc1nc(-c2ccc(Cl)s2)sc1C(=O)O
melting point: 255 to 257 °C

Cc1cc2cc(Cl)cc(Cl)c2[nH]1
melting point: 49 to 51 °C

O=C(c1c[nH]c2ccccc12)C(Cl)c1ccccc1 (centres undefined)
melting point: 124 to 126 °C

NC1CCN(c2ccccc2Cl)C1=O (centres undefined)
melting point: 70 to 72 °C

O=C(CCl)c1c[nH]c2ccccc12
melting point: 183 to 185 °C

Nc1nc(CN2CCN(Cc3ccccc3)CC2)cs1
melting point: 110 to 112 °C

CC(C)(C)OC(=O)C(C#N)c1nccnc1Cl (centres undefined)
melting point: 62 to 64 °C

Cc1c(Cl)cc(S(=O)(=O)Cl)cc1[N+](=O)[O-]
melting point: 60 to 62 °C

Cc1ccc(-c2csc(NC(=O)CCl)n2)cc1C
melting point: 179 to 181 °C

O=C(NC1CCNCC1)c1ccc(F)cc1
melting point: 175 to 177 °C

OCc1cnc2ccccn12
melting point: 123 to 125 °C

CNC(=O)c1cccc(CCN)c1
melting point: 110 to 112 °C

COc1ccc(Br)cc1CN1C(=O)CNC1=O
melting point: 183 to 185 °C

Nc1ccc(CCCC(=O)O)cc1
melting point: 121 to 124 °C

COc1c(C#N)cnc2ccccc12
melting point: 106 to 108 °C

NC(=O)NCCc1cccs1
melting point: 88 to 98 °C

Cc1cccc(COc2cccc(CC(=O)O)c2)c1
melting point: 91 to 93 °C

CCn1cnnc1-c1ccc(C(=O)O)cc1
melting point: 211 to 213 °C

CS(=O)(=O)c1cccc(O)c1
melting point: 69 to 71 °C

Cc1nn(CC(=O)O)c(C)c1[N+](=O)[O-]
melting point: 179 to 181 °C

COc1ccc([N+](=O)[O-])cc1S(=O)(=O)Cl
melting point: 85 to 87 °C

CCc1cc(=O)[nH]c(-c2ccnc(Cl)c2)n1
melting point: 217 to 219 °C

O=C1C=CC(=O)N1c1cc(Cl)cc(Cl)c1
melting point: 139 to 141 °C

COc1ccc(-c2nc(CC(=O)O)cs2)cc1OC
melting point: 162 to 164 °C

CC(=O)Nc1nc(CCl)cs1
melting point: 159 to 161 °C

O=C(CCl)Nc1ccnn1Cc1ccccc1Cl
melting point: 119 to 121 °C

C=CCNS(=O)(=O)Cc1ccc(N)cc1
melting point: 124 to 126 °C

NC(CC(=O)NC1CCCCC1)=NO
melting point: 167 to 169 °C

O=C(O)C1CCN(S(=O)(=O)N2CCCCC2)CC1
melting point: 131 to 133 °C

CC(NC(=O)c1ccoc1)C(=O)O (centres undefined)
melting point: 166 to 168 °C

COc1ccc(Cl)cc1CS(=O)(=O)Cl
melting point: 69 to 71 °C

COC(=O)c1c(CC(C)C)csc1N
melting point: 66 to 68 °C

Cc1cc(C=O)c(C)n1-c1ccc(F)cc1F
melting point: 133 to 135 °C

NC(=NO)c1ccnc(N2CCCCC2)c1
melting point: 179 to 181 °C

O=C(O)c1cc2cc(Br)sc2[nH]1
melting point: 164 to 166 °C

CCCn1c(N)c(NCCOC)c(=O)[nH]c1=O
melting point: 193 to 195 °C

O=C(O)CSc1nccs1
melting point: 151 to 153 °C

CCCCCc1cc(N)on1
melting point: 40 to 42 °C

Cc1cc(C(=O)O)nn1-c1ccc(Cl)cc1
melting point: 139 to 141 °C

NCC1(Nc2ccccc2)CCCCC1
melting point: 61 to 63 °C

O=C(O)CC1SC(=Nc2ccccc2)NC1=O (centres undefined)
melting point: 202 to 204 °C

COc1csc(C(=O)O)c1
melting point: 167 to 169 °C

O=C(CCl)n1nc2ccccn2c1=O
melting point: 164 to 166 °C

CCCOc1ccc(CC(=O)O)cc1OCCC
melting point: 59 to 61 °C

Cc1c(N)cccc1-c1nc2cc(F)ccc2n1C1CC1
melting point: 131 to 133 °C

O=C(O)/C=C/c1ccc(OC(F)F)cc1OC(F)F
melting point: 106 to 108 °C

Nn1c(S)nnc1Cc1ccccc1F
melting point: 158 to 161 °C

FC(F)(F)c1cc(Cl)nc(-c2ccncc2)n1
melting point: 158 to 160 °C

OC(CNCc1ccccc1)c1cccs1 (centres undefined)
melting point: 95 to 97 °C

Cc1nc(C)c(NC(=O)OC(C)(C)C)s1
melting point: 90 to 92 °C

CC1(C)CC(C=Cc2ccccn2)=Cc2c1sc(N)c2C#N
melting point: 200 to 202 °C

CCN1C(=O)C(=O)c2cc(C)ccc21
melting point: 104 to 106 °C

NC(=O)C(O)C1CCOC1 (centres undefined)
melting point: 84 to 86 °C

O=C(O)CNC1CCCC1
melting point: 210 to 212 °C

O=C(O)c1ccccc1C(=O)Nc1ccc(-c2ccccc2)cc1
melting point: 292 to 294 °C

Nc1ccc2c(c1)CCO2
melting point: 71 to 73 °C

Oc1ccc(OCC2CC2)cc1
melting point: 54 to 56 °C

COC(=O)C(NC(c1ccccc1)(c1ccccc1)c1ccccc1)C(C)O (centres undefined)
melting point: 115 to 117 °C

Cc1c(C(=O)O)nnn1-c1ccc(Br)cc1Cl
melting point: 163 to 165 °C

CC1(C)COC2(CCNCC2)OC1
melting point: 62 to 64 °C

CC(=O)c1ccc(C(F)(F)F)[nH]c1=O
melting point: 87 to 89 °C

Nc1ncn(Cc2cccnc2)n1
melting point: 112 to 114 °C
